Literature values in paper PMC7941644, “Identification and Development of Therapeutics for COVID-19” (ArXiv, 2021).
Like-named read-outs stand apart in the source and are kept apart here.

Tests used:
[1] = system: COVID-19; design: method as in doi:10.1101/2020.06.22.20137273
[2] = system: IL-10; design: method as in PMID 8902882
[3] = system: IL-12; design: method as in PMID 8902882
[4] = system: COVID-19; design: method as in PMID 32821939; conditions: moderate COVID-19
[5] = molecular target: SARS-CoV-1; conditions: cell culture assays
[6] = system: COVID-19; design: method as in PMID 32445440
[7] = system: COVID-19; design: method as in PMID 32275812; conditions: of the 53 patients evaluated; 200 mg IV day 1, 100 mg/day for 9 days; no control group
[8] = molecular target: MERS-CoV; conditions: cell culture assays
[9] = system: COVID-19
[10] = system: COVID-19; design: method as in PMID 33031764
[11] = system: COVID-19; conditions: ivermectin preliminary; HCQ and lopinavir-ritonavir ref 144

C[C@@H]1C[C@H]2[C@@H]3CCC4=CC(=O)C=C[C@]4(C)[C@@]3(F)[C@@H](O)C[C@]2(C)[C@@]1(O)C(=O)CO [dexamethasone, 9α-fluoro-16α-methylprednisolone]
28-day mortality rate ([1]; all patients, 6 mg per day for up to 10 days, SOC 24.6%, p < 0.001): 21.6% | 28-day mortality ([1]; patients breathing independently at randomization, SOC 14.0%): 17.8% | 28-day mortality ([1]; patients receiving oxygen supplementation at randomization, SOC 26.2%): 23.3% | 28-day mortality ([1]; patients ventilated at randomization, SOC 41.4%): 29.3% | effect on IL-10 [2]: not to affect IL-10 | effect on IL-12 production [3]: dose-dependent inhibition of IL-12 production

CCC(CC)COC(=O)[C@H](C)N[P@](=O)(OC[C@H]1O[C@@](C#N)(c2ccc3c(N)ncnn23)[C@H](O)[C@@H]1O)Oc1ccccc1 [remdesivir]
effect of treatment for five days relative to standard of care [4]: small effect of treatment | IC50, polymerase and replication [5]: submicromolar | hazard ratio for death by 14 days ([6]; 95% CI 0.36 to 0.83): 0.55 | hazard ratio for death at day 29 ([6]; 95% CI 0.52 to 1.03): 0.73 | rate ratio for recovery ([6]; 95% CI 1.12 to 1.49, p < 0.001): 1.29 | serious adverse events ([6]; 131 of 532 patients, placebo 31.6%): 24.6% | rate ratio for recovery ([6]; patients with severe disease, 95% CI 1.12 to 1.52): 1.31 | recovery period ([6]; patients with severe disease, versus 18): 11 days | Kaplan-Meier estimate of mortality by 14 days ([6]; placebo 11.9%): 6.7% | Kaplan-Meier estimate of mortality at day 29 ([6]; placebo 15.2%): 11.4% | median recovery time ([6]; placebo 15 days): 10 days | clinical improvement [7]: 68% | IC50, polymerase and replication [8]: submicromolar | patients who died during initial hospitalization ([9]; 2,750 patients in remdesivir group, control 303 of 2,708): 301 | overall rate ratio for death ([9]; meta-analysis of Solidarity and three other remdesivir studies, p = 0.20): 0.91 | rate ratio of in-hospital death ([9]; vs control, no placebo): 0.95

lopinavir-ritonavir
effect on COVID-19-related mortality [10]: no effect | effect on COVID-19 outcomes [11]: no effect
